In ChEMBL document CHEMBL3991601, “The target landscape of clinical kinase drugs” (Science, 2017):
Active and inactive are the calls of the source. Cut-off read from the data, not from the text of the source, for most assays here: actives have a measured Kd and inactives only a lower limit.

Experiments:
[1] = target: S-adenosylmethionine synthase isoform type-2 (Homo sapiens, UniProt P31153)
[2] = target: T1, Serine/threonine-protein kinase D2 (Homo sapiens, UniProt Q9BZL6)
T1 sequence (Q9BZL6 whole entry): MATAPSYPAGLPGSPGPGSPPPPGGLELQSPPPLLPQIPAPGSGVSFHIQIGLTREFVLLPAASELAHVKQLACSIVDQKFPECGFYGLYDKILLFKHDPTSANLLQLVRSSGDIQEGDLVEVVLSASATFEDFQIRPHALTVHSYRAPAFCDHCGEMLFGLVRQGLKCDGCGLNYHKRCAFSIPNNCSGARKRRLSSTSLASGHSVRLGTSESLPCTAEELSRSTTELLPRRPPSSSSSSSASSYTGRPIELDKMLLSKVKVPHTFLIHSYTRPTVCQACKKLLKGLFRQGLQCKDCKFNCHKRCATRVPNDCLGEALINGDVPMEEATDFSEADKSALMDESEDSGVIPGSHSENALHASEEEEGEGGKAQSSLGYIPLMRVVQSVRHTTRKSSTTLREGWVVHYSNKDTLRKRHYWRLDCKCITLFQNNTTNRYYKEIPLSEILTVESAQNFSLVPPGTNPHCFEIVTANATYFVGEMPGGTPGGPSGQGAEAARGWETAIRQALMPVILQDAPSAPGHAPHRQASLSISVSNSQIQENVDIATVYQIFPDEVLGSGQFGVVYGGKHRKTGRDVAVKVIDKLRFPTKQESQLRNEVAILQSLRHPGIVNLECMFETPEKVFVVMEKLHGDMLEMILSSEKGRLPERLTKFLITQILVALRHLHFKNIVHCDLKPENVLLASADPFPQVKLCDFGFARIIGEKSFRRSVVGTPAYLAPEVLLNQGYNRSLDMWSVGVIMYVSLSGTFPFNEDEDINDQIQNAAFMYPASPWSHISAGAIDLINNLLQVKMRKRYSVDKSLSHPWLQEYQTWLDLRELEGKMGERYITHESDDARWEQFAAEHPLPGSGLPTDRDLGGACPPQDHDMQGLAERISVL

[3] = target: T2, Serine/threonine-protein kinase Nek3 (Homo sapiens, UniProt P51956)
T2 sequence (P51956 whole entry): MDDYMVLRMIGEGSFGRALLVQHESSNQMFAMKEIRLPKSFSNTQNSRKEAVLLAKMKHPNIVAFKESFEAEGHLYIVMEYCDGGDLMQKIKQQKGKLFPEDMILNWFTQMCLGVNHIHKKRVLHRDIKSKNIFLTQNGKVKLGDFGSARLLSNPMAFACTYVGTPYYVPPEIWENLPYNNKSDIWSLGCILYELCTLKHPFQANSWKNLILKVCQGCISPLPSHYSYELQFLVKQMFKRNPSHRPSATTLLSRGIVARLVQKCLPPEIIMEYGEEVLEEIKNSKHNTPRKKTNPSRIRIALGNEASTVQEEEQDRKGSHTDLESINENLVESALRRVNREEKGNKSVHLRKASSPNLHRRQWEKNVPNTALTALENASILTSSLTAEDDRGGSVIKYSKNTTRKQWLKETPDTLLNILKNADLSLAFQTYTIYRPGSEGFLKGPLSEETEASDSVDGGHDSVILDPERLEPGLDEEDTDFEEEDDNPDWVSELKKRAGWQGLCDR

[4] = target: T3, Discoidin domain-containing receptor 2 (Homo sapiens, UniProt Q16832)
T3 sequence (Q16832 whole entry): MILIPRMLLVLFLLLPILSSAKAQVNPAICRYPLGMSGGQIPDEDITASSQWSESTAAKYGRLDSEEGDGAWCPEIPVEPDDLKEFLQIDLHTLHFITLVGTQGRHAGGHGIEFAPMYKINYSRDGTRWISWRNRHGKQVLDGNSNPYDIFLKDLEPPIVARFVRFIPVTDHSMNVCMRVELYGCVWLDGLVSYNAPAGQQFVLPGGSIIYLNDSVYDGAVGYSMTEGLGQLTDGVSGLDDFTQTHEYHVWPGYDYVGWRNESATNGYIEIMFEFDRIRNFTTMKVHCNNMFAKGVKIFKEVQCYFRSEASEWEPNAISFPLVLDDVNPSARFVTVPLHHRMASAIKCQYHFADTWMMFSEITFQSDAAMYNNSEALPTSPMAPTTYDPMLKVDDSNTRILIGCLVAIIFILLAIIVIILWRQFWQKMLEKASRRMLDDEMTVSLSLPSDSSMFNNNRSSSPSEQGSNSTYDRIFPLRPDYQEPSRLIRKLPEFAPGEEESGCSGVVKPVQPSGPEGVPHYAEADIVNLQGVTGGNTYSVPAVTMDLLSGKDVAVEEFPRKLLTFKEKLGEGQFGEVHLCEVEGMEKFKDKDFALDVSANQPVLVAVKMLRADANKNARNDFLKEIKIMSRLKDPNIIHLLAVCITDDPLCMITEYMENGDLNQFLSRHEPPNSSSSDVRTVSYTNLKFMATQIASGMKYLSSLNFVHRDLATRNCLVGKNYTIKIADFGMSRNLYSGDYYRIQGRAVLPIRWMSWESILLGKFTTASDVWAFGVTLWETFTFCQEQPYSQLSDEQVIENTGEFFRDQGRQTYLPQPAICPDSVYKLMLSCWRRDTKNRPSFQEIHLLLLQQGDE

[5] = target: Cyclin-dependent kinase 13 (Homo sapiens, UniProt Q14004)
[6] = target: Ribosomal protein S6 kinase alpha-5 (Homo sapiens, UniProt O75582)
[7] = target: Serine/threonine-protein kinase SIK3 (Homo sapiens, UniProt Q9Y2K2)
[8] = target: Interleukin-1 receptor-associated kinase 1 (Homo sapiens, UniProt P51617)
Note: in the data inactive means no Kd found up to 30 µM.

Sequence of Ribosomal protein S6 kinase alpha-5 (O75582 whole entry): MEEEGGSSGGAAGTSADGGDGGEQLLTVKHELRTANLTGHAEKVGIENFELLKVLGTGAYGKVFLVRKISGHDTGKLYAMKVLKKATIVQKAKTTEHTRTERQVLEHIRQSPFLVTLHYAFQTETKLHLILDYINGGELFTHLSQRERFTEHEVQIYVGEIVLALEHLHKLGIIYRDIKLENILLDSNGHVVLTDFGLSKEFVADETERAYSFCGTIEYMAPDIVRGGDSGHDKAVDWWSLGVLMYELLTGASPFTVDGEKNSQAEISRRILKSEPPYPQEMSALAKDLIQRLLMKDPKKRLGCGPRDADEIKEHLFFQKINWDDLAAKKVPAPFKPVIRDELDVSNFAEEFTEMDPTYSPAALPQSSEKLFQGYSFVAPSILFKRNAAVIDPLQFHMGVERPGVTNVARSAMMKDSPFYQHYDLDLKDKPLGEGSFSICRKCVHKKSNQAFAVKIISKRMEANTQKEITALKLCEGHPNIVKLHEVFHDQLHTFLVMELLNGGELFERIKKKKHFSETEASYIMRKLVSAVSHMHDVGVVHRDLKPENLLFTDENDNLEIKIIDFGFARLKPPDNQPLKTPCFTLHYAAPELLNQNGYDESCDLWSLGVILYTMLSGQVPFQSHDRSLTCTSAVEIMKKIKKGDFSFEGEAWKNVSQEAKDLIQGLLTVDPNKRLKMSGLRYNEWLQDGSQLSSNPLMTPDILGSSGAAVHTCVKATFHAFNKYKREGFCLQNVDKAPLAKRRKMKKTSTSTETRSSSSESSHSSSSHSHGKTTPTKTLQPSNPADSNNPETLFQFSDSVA
Sequence of Cyclin-dependent kinase 13 (Q14004 whole entry): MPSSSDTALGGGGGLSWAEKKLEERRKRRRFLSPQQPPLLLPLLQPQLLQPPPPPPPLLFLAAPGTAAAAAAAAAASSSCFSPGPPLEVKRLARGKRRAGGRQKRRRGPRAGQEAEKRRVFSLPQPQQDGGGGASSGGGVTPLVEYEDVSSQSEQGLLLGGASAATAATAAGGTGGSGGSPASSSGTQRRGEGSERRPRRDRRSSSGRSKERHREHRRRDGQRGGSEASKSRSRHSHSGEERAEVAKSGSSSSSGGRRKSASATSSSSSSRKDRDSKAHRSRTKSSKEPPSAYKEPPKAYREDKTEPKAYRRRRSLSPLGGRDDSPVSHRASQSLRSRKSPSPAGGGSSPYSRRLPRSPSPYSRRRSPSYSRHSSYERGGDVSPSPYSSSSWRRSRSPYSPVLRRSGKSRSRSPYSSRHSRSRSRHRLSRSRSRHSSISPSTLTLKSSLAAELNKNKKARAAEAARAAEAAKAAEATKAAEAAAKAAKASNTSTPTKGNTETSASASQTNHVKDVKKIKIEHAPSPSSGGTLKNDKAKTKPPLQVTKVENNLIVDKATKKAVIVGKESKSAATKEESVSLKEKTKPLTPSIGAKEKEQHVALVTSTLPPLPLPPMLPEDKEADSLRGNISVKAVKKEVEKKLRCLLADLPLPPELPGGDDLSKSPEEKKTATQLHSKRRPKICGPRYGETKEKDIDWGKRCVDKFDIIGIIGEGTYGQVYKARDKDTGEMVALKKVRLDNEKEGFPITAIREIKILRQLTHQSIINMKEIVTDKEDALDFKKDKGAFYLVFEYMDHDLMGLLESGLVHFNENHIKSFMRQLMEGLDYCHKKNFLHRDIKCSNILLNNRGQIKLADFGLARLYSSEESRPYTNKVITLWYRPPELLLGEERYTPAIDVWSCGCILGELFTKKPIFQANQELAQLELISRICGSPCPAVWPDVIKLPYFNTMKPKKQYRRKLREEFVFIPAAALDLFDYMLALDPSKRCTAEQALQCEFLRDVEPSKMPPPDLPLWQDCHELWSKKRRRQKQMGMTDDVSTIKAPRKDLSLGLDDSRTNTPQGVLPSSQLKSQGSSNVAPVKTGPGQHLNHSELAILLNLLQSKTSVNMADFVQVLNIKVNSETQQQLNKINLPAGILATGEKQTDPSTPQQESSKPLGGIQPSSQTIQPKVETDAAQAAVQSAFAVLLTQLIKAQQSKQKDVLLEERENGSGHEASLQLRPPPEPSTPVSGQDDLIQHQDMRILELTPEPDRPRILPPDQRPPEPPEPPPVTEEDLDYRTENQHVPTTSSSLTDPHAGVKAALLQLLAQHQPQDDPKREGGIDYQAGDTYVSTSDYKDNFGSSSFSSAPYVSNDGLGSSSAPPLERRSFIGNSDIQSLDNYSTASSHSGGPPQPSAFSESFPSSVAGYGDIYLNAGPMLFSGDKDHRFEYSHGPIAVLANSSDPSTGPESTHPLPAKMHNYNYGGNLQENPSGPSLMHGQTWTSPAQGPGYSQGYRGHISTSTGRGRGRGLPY
Sequence of Interleukin-1 receptor-associated kinase 1 (P51617 whole entry): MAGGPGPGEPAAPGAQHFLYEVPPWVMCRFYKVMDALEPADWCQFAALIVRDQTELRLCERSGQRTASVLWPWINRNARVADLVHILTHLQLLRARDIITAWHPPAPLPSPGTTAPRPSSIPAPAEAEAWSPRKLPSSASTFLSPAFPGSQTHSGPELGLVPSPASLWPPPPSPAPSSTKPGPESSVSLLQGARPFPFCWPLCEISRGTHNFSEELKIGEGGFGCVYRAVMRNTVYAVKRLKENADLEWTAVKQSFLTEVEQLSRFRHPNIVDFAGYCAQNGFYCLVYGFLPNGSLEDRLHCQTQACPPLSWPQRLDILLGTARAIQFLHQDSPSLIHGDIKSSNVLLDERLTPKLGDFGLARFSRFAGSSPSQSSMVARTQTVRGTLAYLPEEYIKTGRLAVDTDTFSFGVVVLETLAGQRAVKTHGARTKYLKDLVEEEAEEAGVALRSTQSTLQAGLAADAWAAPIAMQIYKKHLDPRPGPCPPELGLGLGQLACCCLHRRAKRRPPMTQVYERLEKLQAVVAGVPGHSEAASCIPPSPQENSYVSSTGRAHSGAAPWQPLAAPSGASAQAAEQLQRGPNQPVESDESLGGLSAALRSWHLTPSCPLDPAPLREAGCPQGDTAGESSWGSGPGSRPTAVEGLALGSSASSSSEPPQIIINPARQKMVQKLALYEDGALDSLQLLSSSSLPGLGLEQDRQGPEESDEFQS
Sequence of Serine/threonine-protein kinase SIK3 (Q9Y2K2 whole entry): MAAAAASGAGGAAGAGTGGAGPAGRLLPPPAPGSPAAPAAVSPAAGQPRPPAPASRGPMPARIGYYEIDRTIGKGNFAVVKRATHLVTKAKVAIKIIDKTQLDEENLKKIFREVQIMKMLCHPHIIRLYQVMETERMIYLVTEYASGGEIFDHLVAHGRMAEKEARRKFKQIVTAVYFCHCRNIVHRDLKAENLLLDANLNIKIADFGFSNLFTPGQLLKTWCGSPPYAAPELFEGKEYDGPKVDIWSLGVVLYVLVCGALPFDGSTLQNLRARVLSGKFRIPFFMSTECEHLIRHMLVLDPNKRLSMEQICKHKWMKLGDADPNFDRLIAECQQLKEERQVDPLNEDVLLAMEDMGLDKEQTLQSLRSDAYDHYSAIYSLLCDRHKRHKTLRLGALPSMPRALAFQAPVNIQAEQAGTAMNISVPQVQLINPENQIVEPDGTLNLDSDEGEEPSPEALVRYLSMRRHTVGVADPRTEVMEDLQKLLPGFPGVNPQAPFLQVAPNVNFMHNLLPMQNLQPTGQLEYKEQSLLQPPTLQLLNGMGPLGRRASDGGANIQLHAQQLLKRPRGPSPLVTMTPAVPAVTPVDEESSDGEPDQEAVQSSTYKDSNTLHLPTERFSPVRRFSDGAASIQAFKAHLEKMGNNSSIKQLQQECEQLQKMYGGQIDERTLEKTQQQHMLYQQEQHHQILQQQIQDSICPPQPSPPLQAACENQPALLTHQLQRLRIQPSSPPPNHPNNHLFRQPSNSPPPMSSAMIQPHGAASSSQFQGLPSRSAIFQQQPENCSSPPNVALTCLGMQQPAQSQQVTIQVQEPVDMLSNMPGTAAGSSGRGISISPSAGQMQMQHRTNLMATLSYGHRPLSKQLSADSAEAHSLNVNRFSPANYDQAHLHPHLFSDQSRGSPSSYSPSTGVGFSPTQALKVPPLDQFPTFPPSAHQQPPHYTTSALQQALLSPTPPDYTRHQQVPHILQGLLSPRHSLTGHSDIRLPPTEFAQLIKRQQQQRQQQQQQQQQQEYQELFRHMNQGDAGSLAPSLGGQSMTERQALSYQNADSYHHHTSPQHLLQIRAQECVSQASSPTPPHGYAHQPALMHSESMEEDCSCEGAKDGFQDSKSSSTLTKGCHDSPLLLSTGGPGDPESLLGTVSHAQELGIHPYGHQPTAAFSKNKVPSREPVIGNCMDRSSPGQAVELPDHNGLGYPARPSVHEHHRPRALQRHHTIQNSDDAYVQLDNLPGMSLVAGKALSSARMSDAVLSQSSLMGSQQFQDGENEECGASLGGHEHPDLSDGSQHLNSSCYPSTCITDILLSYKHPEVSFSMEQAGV
Sequence of S-adenosylmethionine synthase isoform type-2 (P31153 whole entry, canonical isoform): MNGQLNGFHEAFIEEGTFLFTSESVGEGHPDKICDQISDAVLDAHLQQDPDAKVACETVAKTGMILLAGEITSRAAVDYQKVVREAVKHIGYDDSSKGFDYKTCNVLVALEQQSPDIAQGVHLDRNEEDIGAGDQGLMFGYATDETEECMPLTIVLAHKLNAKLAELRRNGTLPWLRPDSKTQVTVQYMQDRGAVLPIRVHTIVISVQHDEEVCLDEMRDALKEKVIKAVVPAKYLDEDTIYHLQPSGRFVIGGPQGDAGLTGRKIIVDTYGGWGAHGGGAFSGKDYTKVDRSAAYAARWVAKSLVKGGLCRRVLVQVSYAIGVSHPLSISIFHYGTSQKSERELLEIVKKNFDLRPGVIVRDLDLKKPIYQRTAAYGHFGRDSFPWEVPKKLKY

Kd [1]	Kd [2]	Kd [3]	Kd [4]	Kd [5]	Kd [6]	Kd [7]	Kd [8]	SMILES
> 30 µM (inactive)	> 30 µM (inactive)	> 30 µM (inactive)	> 30 µM (inactive)	> 30 µM (inactive)	> 30 µM (inactive)	> 30 µM (inactive)	> 30 µM (inactive)	CCCS(=O)(=O)Nc1ccc(F)c(C(=O)c2c[nH]c3ncc(-c4ccc(Cl)cc4)cc23)c1F [VEMURAFENIB]
> 30 µM (inactive)	> 30 µM (inactive)	> 30 µM (inactive)	> 30 µM (inactive)	> 30 µM (inactive)	> 30 µM (inactive)	> 30 µM (inactive)	> 30 µM (inactive)	CC[C@H](Nc1ncnc2[nH]cnc12)c1nc2cccc(F)c2c(=O)n1-c1ccccc1 [IDELALISIB]
> 30 µM (inactive)	> 30 µM (inactive)	> 30 µM (inactive)	> 30 µM (inactive)	> 30 µM (inactive)	> 30 µM (inactive)	> 30 µM (inactive)	1.58 µM (active)	O=C(O)[C@]1(Cc2cccc(Nc3nccs3)n2)CC[C@@H](Oc2cccc(Cl)c2F)CC1 [MK-5108]
> 30 µM (inactive)	> 30 µM (inactive)	> 30 µM (inactive)	> 30 µM (inactive)	> 30 µM (inactive)	> 30 µM (inactive)	> 30 µM (inactive)	> 30 µM (inactive)	CC(=O)Nc1cccc(-n2c(=O)n(C3CC3)c(=O)c3c(Nc4ccc(I)cc4F)n(C)c(=O)c(C)c32)c1 [TRAMETINIB]
–	> 30 µM (inactive)	> 30 µM (inactive)	> 30 µM (inactive)	> 30 µM (inactive)	> 30 µM (inactive)	> 30 µM (inactive)	> 30 µM (inactive)	Cn1cc(-c2ccc3nnc(C(F)(F)c4ccc5ncccc5c4)n3n2)cn1 [JNJ-38877605]
> 30 µM (inactive)	> 30 µM (inactive)	> 30 µM (inactive)	0.218 µM (active)	> 30 µM (inactive)	> 30 µM (inactive)	> 30 µM (inactive)	–	COc1cc2nccc(Oc3ccc(NC(=O)NC4CC4)c(Cl)c3)c2cc1C(N)=O [LENVATINIB]
> 30 µM (inactive)	–	–	–	–	–	–	–	Nc1nc(N)c2nc(-c3cccc(O)c3)c(-c3cccc(O)c3)nc2n1 [TG100-115]
–	> 30 µM (inactive)	> 30 µM (inactive)	> 30 µM (inactive)	> 30 µM (inactive)	> 30 µM (inactive)	> 30 µM (inactive)	> 30 µM (inactive)	Cn1cc(-c2ccc(F)c(C(F)(F)F)c2)nc1C1CCN(c2ncnc3[nH]ncc23)CC1 [LY-2584702]
–	> 30 µM (inactive)	> 30 µM (inactive)	> 30 µM (inactive)	> 30 µM (inactive)	> 30 µM (inactive)	> 30 µM (inactive)	> 30 µM (inactive)	Cc1c(F)cc(C(=O)NC2CC2)cc1-c1ccc(C(=O)NCC(C)(C)C)cn1 [LOSMAPIMOD]

The remaining lines, values behind:

SMILES	Kd [1]	Kd [2]	Kd [3]	Kd [4]	Kd [5]	Kd [6]	Kd [7]	Kd [8]
Cn1ncc(Cl)c1-c1cc(C(=O)N[C@H](CN)Cc2cccc(F)c2)sc1Cl [AFURESERTIB]	> 30 µM (inactive)	3.91 µM (active)	> 30 µM (inactive)	> 30 µM (inactive)	> 30 µM (inactive)	> 30 µM (inactive)	> 30 µM (inactive)	> 30 µM (inactive)
COC(=O)N[C@@H](C)CNc1nccc(-c2cn(C(C)C)nc2-c2cc(Cl)cc(NS(C)(=O)=O)c2F)n1 [ENCORAFENIB]	> 30 µM (inactive)	> 30 µM (inactive)	> 30 µM (inactive)	> 30 µM (inactive)	> 30 µM (inactive)	> 30 µM (inactive)	> 30 µM (inactive)	0.247 µM (active)
Cc1cc(-c2cc(O)ccc2Cl)cc2nnc(Nc3ccc(OCCN4CCCC4)cc3)nc12	> 30 µM (inactive)	0.003 µM (active)	> 30 µM (inactive)	0.004 µM (active)	> 30 µM (inactive)	> 30 µM (inactive)	0.003 µM (active)	> 30 µM (inactive)
CCN1CCN(Cc2ccc(-c3cc4c(N[C@H](C)c5ccccc5)ncnc4[nH]3)cc2)CC1 [AEE-788]	> 30 µM (inactive)	> 30 µM (inactive)	38.1 µM (active)	28.2 µM (active)	> 30 µM (inactive)	> 30 µM (inactive)	> 30 µM (inactive)	> 30 µM (inactive)
CNS(=O)(=O)Nc1nccc(Cc2c(C)c3ccc(Oc4ncccn4)cc3oc2=O)c1F [AVUTOMETINIB]	> 30 µM (inactive)	> 30 µM (inactive)	> 30 µM (inactive)	> 30 µM (inactive)	> 30 µM (inactive)	> 30 µM (inactive)	> 30 µM (inactive)	> 30 µM (inactive)
Cc1cn(-c2cc(NC(=O)c3ccc(C)c(Nc4nccc(-c5cccnc5)n4)c3)cc(C(F)(F)F)c2)cn1 [NILOTINIB]	> 30 µM (inactive)	–	–	–	–	–	–	–
O=C(Nc1cccc(Cl)c1)Nc1ncc(CCNc2ncnc3ccsc23)s1 [SNS-314]	> 30 µM (inactive)	–	> 30 µM (inactive)	0.423 µM (active)	–	> 30 µM (inactive)	> 30 µM (inactive)	–
Cc1nc(N)sc1-c1ccnc(Nc2ccc(N3CCOCC3)cc2)n1 [CYC-116]	> 30 µM (inactive)	–	0.83 µM (active)	> 30 µM (inactive)	–	–	–	–
Cc1cc(Nc2cc(N3CCN(C)CC3)nc(/C=C/c3ccccc3)n2)n[nH]1 [ENMD-2076]	> 30 µM (inactive)	–	> 30 µM (inactive)	3.42 µM (active)	> 30 µM (inactive)	> 30 µM (inactive)	> 30 µM (inactive)	–
Cc1ccc(NC(=O)c2ccc(CN3CC[C@H](N(C)C)C3)c(C(F)(F)F)c2)cc1Nc1nccc(-c2cncnc2)n1 [BAFETINIB]	–	> 30 µM (inactive)	> 30 µM (inactive)	0.048 µM (active)	> 30 µM (inactive)	> 30 µM (inactive)	> 30 µM (inactive)	2.06 µM
COc1cc(CCc2cc(NC(=O)c3ccc(N4C[C@@H](C)N[C@@H](C)C4)cc3)n[nH]2)cc(OC)c1 [AZD-4547]	–	> 30 µM (inactive)	> 30 µM (inactive)	12.9 µM (active)	> 30 µM (inactive)	> 30 µM (inactive)	> 30 µM (inactive)	> 30 µM (inactive)
CCn1c(-c2nonc2N)nc2c(C#CC(C)(C)O)ncc(OC[C@H]3CCCNC3)c21 [GSK-690693]	> 30 µM (inactive)	–	–	–	–	–	–	–
